Ten compounds from patent US4791139A, “Diphenyl ether derivatives and their use as insecticides” (Imperial Chemical Industries PLC, priority 1986, dated 1988) can be followed below.

Where only a bound is given, the exact number is not on record here.

The mortality is the share of the test organisms that died.

Holding throughout (format): in vivo
The test system of assay [1] is Spodoptera exigua (lesser army worm - larvae). Put plainly: Residual test, lesser army worm - larvae (SP), Cotton leaf. Particulars: 72 h, 500 ppm, 3 days, read-out: SP grading of mortality. The procedure:
(§1) The activity of the Product was determined using a variety of insect pests. The Product was used in the form of liquid preparations containing from 100 to 500 parts per million (ppm) by weight of the Product. The preparations were made by dissolving the Product in acetone and diluting the solutions with water containing 0.1% by weight of a wetting agent sold under the trade name "SYNPERONIC" NX until the liquid preparations contained the required concentration of the Product. "SYNPERONIC" is a Registered Trade Mark.
(§2) The test procedure adopted with regard to each pest was basically the same and comprised supporting a number of the pests on a medium which was usually a host plant or a foodstuff on which the pests feed, and treating either or both the pests and the medium with the preparations. The mortality of the pests was then assessed at periods usually varying from one to seven days after the treatment.
(§3) The results of the tests are given in Table III for each of the Products, at the rate in parts per million given in the second column as a grading of mortality designated as A, B or C wherein A indicates 80-100% mortality or knockdown (70-100% for Meloidogyne incognita), B indicates 50-79% mortality knockdown or knockdown (50-69% for Meloidogyne incognita) and C indicates less than 50% mortality or knockdown.
(§4) In Table III the pest organism used is designated by a letter code and the pests species, the support medium or food, and the type and duration of test is given in Table II.
(lesser army worm - larvae)

The test system of assay [2] is Diabrotica balteata (rootworm larvae). Put plainly: Residual test, rootworm larvae (DB), Filter paper/maize seed. Particulars: 72 h, 500 ppm, 3 days, read-out: DB grading of mortality. The method, then:
as §1, with “Mark. The test procedure adopted with regard to each pest was basically the same and comprised supporting a number of the pests on a medium which was usually a host plant or a foodstuff on which the pests feed, and treating either or both the pests and the medium with the preparations. The mortality of the pests was then assessed at periods usually varying from one to seven days after the treatment.” for “Mark.”

For assay [3], the system named is Nilaparvata lugens (brown plant hopper - nymphs). Put plainly: Contact test, brown plant hopper - nymphs (NL), Rice plant. Conditions: 72 h, 500 ppm, 3 days, read-out: NL grading of mortality. The procedure: as §1, with “Mark. The test procedure adopted with regard to each pest was basically the same and comprised supporting a number of the pests on a medium which was usually a host plant or a foodstuff on which the pests feed, and treating either or both the pests and the medium with the preparations. The mortality of the pests was then assessed at periods usually varying from one to seven days after the treatment.” for “Mark.”

The test system of assay [4] is Meloidogyne incognita (Tomato root knot eelworm - larvae). The experiment in a line: Residual test, Tomato root knot eelworm - larvae (MI), Semi in-vitro. Conditions: 168 h, rate column 500 ppm, application rate is half that recorded, 7 days, read-out: MI grading of mortality.
Assay [5] deals with Tetranychus urticae (spider mites - adult). Put plainly: Contact test, spider mites - adult (TUa), French bean leaf. Conditions: 72 h, 500 ppm, 3 days, read-out: TUA grading of mortality. The method, then:
as §1, with “Mark. The test procedure adopted with regard to each pest was basically the same and comprised supporting a number of the pests on a medium which was usually a host plant or a foodstuff on which the pests feed, and treating either or both the pests and the medium with the preparations. The mortality of the pests was then assessed at periods usually varying from one to seven days after the treatment.” for “Mark.”

Assay [6] has as its system Tetranychus urticae (spider mites - ova). The experiment in a line: Contact test, spider mites - ova (TUe), French bean leaf. Particulars: 144 h, 500 ppm, 6 days, read-out: TUE grading of mortality. The method, then: as §1, with “Mark. The test procedure adopted with regard to each pest was basically the same and comprised supporting a number of the pests on a medium which was usually a host plant or a foodstuff on which the pests feed, and treating either or both the pests and the medium with the preparations. The mortality of the pests was then assessed at periods usually varying from one to seven days after the treatment.” for “Mark.”

In assay [7] the test system is Blattella germanica (cockroach nymphs). The experiment in a line: Residual test, cockroach nymphs (BG), Plastic pot. Particulars: 72 h, 500 ppm, 3 days, read-out: BG grading of mortality. The procedure:
as §1, with “Mark. The test procedure adopted with regard to each pest was basically the same and comprised supporting a number of the pests on a medium which was usually a host plant or a foodstuff on which the pests feed, and treating either or both the pests and the medium with the preparations. The mortality of the pests was then assessed at periods usually varying from one to seven days after the treatment.” for “Mark.”

For assay [8], the system named is Musca domestica (houseflies - adults). The experiment in a line: Contact test, houseflies - adults (MD), Cotton wool/sugar. Particulars: 24 h, 500 ppm, 1 day, read-out: MD grading of mortality. The method, then:
as §1, with “Mark. The test procedure adopted with regard to each pest was basically the same and comprised supporting a number of the pests on a medium which was usually a host plant or a foodstuff on which the pests feed, and treating either or both the pests and the medium with the preparations. The mortality of the pests was then assessed at periods usually varying from one to seven days after the treatment.” for “Mark.”

Assay [9] shares this test system. Put plainly: Knockdown test, houseflies - adults (MD/KD), Cotton wool/sugar. Particulars: 500 ppm, 4 hours, read-out: MD/KD grading of knockdown. The procedure: as §1, §2
In the case of the species Musca domestica (housefly), an additional assessment to determine the knockdown effect of the compounds was performed.
as §4

Assay [10] concerns Heliothis virescens (tobacco budworm - larvae). The experiment in a line: Residual test, tobacco budworm - larvae (HV), Cotton leaf. Particulars: 72 h, read-out: HV grading of mortality. The method, then:
as §1, §2, §3, §4
(tobacco budworm - larvae)

The test system of the next assay is Myzus persicae (aphids). Put plainly: Contact test, aphids (MP), Chinese Cabbage leaf. Conditions: 72 h, 500 ppm, 3 days, read-out: MP grading of mortality. The procedure:
The activity of the Product was determined using a variety of insect pests. The Product was used in the form of liquid preparations containing from 100 to 500 parts per million (ppm) by weight of the Product. The preparations were made by dissolving the Product in acetone and diluting the solutions with water containing 0.1% by weight of a wetting agent sold under the trade name "SYNPERONIC" NX until the liquid preparations contained the required concentration of the Product. "SYNPERONIC" is a Registered Trade Mark. The test procedure adopted with regard to each pest was basically the same and comprised supporting a number of the pests on a medium which was usually a host plant or a foodstuff on which the pests feed, and treating either or both the pests and the medium with the preparations. The mortality of the pests was then assessed at periods usually varying from one to seven days after the treatment. […] In Table III the pest organism used is designated by a letter code and the pests species, the support medium or food, and the type and duration of test is given in Table II.

For `CCOc1ccc(C(CCCc2cccc(Oc3ccccc3)c2)C(F)F)cc1` (racemic) [Compound 66, 1,1-Difluoro-2-(4-ethoxyphenyl)-5-(3-phenoxyphenyl)pentane], the mortality at 500 ppm is 80 to 100% in assay [1]; 80 to 100% in [2]; 80 to 100% in assay [3]; under 50% in assay [5]; under 50% in assay [6]; 80 to 100% in assay [7]. The mortality at 500 ppm (in assay [8]; in assay [10]; in the assay on Myzus persicae (aphids)) was 80 to 100% in each case. Moreover, the mortality at 250 µg/mL in assay [4] is under 50%. The pest or weed control at 500 ppm in assay [9] is under 50%.
As for `CCOc1ccc(C(CCCc2cccc(Oc3ccccc3)c2)C(F)(F)Cl)cc1` (racemic) [Compound 69, 1,1-Difluoro-1-chloro-2-(4-ethoxyphenyl)-5-(3-phenoxyphenyl)pentane], the mortality at 500 ppm in [1] is 80 to 100%; in assay [2], 80 to 100%; in assay [3] it was 80 to 100%; in [5], under 50%; in assay [6] it was under 50%; in assay [7], 80 to 100%. For the same compound, the mortality at 500 ppm (in assay [8]; in [10]; in the assay on Myzus persicae (aphids)) was 80 to 100% throughout. The mortality at 250 µg/mL in assay [4] is under 50%. Moreover, the pest or weed control at 500 ppm in assay [9] was under 50%.
For the compound `FC(F)C(CCCc1cccc(Oc2ccccc2)c1)c1ccc(OC(F)(F)F)cc1` (racemic) [Compound 83, 1,1-Difluoro-2-(4-trifluoromethoxyphenyl)-5-(3-phenoxyphenyl)pentane], the mortality at 500 ppm in assay [1], in assay [2], in assay [3], in assay [5], in assay [6] and in assay [7] was 80 to 100% each time. For the same compound, the mortality at 500 ppm (in [8]; in [10]; in the assay on Myzus persicae (aphids)) was 80 to 100% in each case. In assay [9], the pest or weed control at 500 ppm is 80 to 100%.
With `FC(F)(F)C(=CCCc1cccc(Oc2ccccc2)c1)c1ccc2c(c1)OCO2` [Compound 41, 1,1,1-Trifluoro-2-(3,4-methylenedioxyphenyl)-5-(3-phenoxyphenyl)pent-2-ene], the mortality at 500 ppm in assay [1] was 50 to 79%; in [2], 80 to 100%; in assay [3] it was under 50%; in assay [5], under 50%; in assay [6], under 50%; in [7], under 50%. In addition, the mortality at 500 ppm in [8] was 80 to 100%; in assay [10], 50 to 79%; in the assay with Myzus persicae (aphids) it was under 50%. Further, the pest or weed control at 500 ppm in assay [9] was 80 to 100%.
On to `Fc1ccc(CCCC(c2ccc(OC(F)(F)F)cc2)C(F)(F)F)cc1Cc1ccccc1` (stereo not drawn) [Compound 108], for which the mortality at 500 ppm was 80 to 100% in [1]; under 50% in assay [2]; 80 to 100% in assay [3]; 80 to 100% in [5]; 80 to 100% in [6]; 80 to 100% in [7]. Besides, the mortality at 500 ppm (in assay [8]; in assay [10]; in the assay with Myzus persicae (aphids)) was 80 to 100% throughout. The pest or weed control at 500 ppm in [9] lay in the range of 80 to 100%.
For the compound `CCOc1ccc(C(=CC=Cc2ccc(F)c(Cc3ccccc3)c2)C(F)(F)F)cc1` [Compound 107, 1,1,1-Trifluoro-2-(4-ethoxyphenyl)-5-(4-fluoro-3-benzylphenyl)penta-2,4-diene], the mortality at 500 ppm is 80 to 100% in [1]; 80 to 100% in assay [2]; 50 to 79% in assay [3]; under 50% in [5]; under 50% in assay [6]; under 50% in assay [7]. In addition, the mortality at 500 ppm is under 50% in [8], under 50% in [10] and 80 to 100% in the assay on Myzus persicae (aphids). Moreover, the pest or weed control at 500 ppm in assay [9] was under 50%.
With `Fc1ccc(C=CC=C(c2ccc(OC(F)(F)F)cc2)C(F)(F)F)cc1Cc1ccccc1` [Compound 105, 1,1,1-Trifluoro-2-(4-trifluoromethoxyphenyl)-5-(4-fluoro-3-benzylphenyl)penta-2,4-diene], the mortality at 500 ppm in assay [1], in assay [2], in assay [3], in assay [5], in assay [6] and in assay [7] was 80 to 100% throughout. The mortality at 500 ppm in assay [8] was under 50%; in assay [10] it was under 50%; in the assay on Myzus persicae (aphids) it was 80 to 100%. In addition, the pest or weed control at 500 ppm in assay [9] was under 50%.
Regarding `CCOc1ccc(C(CCCc2cccc(Oc3ccccc3)n2)C(F)(F)F)cc1` (stereo not drawn) [Compound 98], the mortality at 500 ppm in assay [1] is 80 to 100%; in assay [2], 80 to 100%; in [3] it was under 50%; in assay [5], 80 to 100%; in assay [6], under 50%; in assay [7], 80 to 100%. In addition, the mortality at 500 ppm (in [8]; in [10]; in the assay on Myzus persicae (aphids)) was 80 to 100% in each case. For the same compound, the pest or weed control at 500 ppm in assay [9] is 80 to 100%.
`CCOc1ccc(C(CCCc2ccc(F)c(Cc3ccccc3)c2)C(F)(F)F)cc1` (racemic) [Compound 106, 1,1,1-Trifluoro-2-(4-ethoxyphenyl)-5-(3-benzyl-4-fluorophenyl)pentane]: the mortality at 500 ppm in [1], in assay [2], in [3], in [5], in [6] and in [7] was 80 to 100% in each case. Moreover, the mortality at 500 ppm (in assay [8]; in assay [10]; in the assay with Myzus persicae (aphids)) was 80 to 100% throughout. For the same compound, the pest or weed control at 500 ppm in [9] is 80 to 100%.
In the case of `FC(F)(F)C(CCCc1cccc(Oc2ccccc2)c1)c1ccc2c(c1)OCO2` (stereo not drawn) [Compound 40, 1,1,1-Trifluoro-2-(3,4-methylenedioxy)phenyl-5-(3-phenoxyphenyl)pentane], the mortality at 500 ppm in assay [1] is 80 to 100%; in assay [2], 80 to 100%; in [3] it was under 50%; in [5] it was under 50%; in assay [6], under 50%; in [7], 50 to 79%. For the same compound, the mortality at 500 ppm (in assay [8]; in assay [10]; with Myzus persicae (aphids)) was 80 to 100% throughout. Also, the pest or weed control at 500 ppm in assay [9] is 80 to 100%.
